The source of these data is patent EP0089900B1, “New N-((2-oxo-1-pyrrolidinyl)acetyl)piperazines, the methods of producing such new compounds and their salts as well as pharmaceutical preparations for therapeutic use containing these compounds or salts” (PRODES S.A., priority 1982, dated 1983).

The test system of data set [1] is animals. The data set can be described thus: Protection against lethality: hypoxia-hypobara (decompression), survival time. The class given is in vivo.
Data set [2] deals with animals. Kind of data set: Protection against lethality: anoxia by CNK, survival time. Type of data set: in vivo.
The next data set concerns anesthetized dogs. Kind of data set: Electromagnetic blood flow measurement (vertebral/cerebral blood flow). The class given is in vivo. The note with it: vertebral blood flow, administration via saphenous vein. The method, then: After orotraqueal intubation, artificial respiration with normal air was instituted using a Manley Pul- movent respirator. The correct ventilation of the dogs was checked after all the surgical procedures by determining the pO2, pCO2 and pH in arterial blood samples, as well as several times during the experiment by means of an Astrup apparatus. Blood pressure (4) was measured in left saphenous artery by means of a Bell & Howell pressure transducer, and the heart rate by means of a Beckman ECG device.
Recordings were made on an ink-writing Beckman polygraph. Left saphenous vein and right saphenous artery were canulated with polyethylene catheters for drug administration and blood collection respectively.
Vertebral blood flow was measured by a non-cannulating electromagnetic flowmeter (Carolina Medical Electronics) placed in the vertebral artery.
The Carolina digital flowmeter was connected to an Omniscribe Houston Instruments plotter.
Piracetam and nicotinic acid were used as control drugs.

Another data set concerns mouse. Kind of data set: Protection against lethality: quick decapitation, gasping time. The following applies: gasping time after decapitation of mouse. The class given is in vivo.
A short description of another data set: Acute toxicity LD50. The note with it: in vivo; species and route not given.

As usually defined, the LD50 is the dose expected to kill half of the subjects tested. Low readings indicate a more toxic substance, high ones a less toxic substance.

Text for mouse: The second trial is the quick decapitation of mouse. The head has a typical mandibular movement, known as gasping, as searching the breathing air.

With `O=C1NC(=O)C(c2ccccc2)(c2ccccc2)N1` [Diphenylhydantoine, reference compound], the hypoxia hypobara entry in the data set with animals [1] (dose 100 mg/kg) is reported as “Active”. Also, in the data set on animals [2] (dose 100 mg/kg), the “anoxia by CNK” value was “Active”.
As to `O=C(O)c1cccnc1` [Nicotinic acid, reference compound], the effect entry in the data set on anesthetized dogs (no dose given) is reported as “No effect”.
For `C=CCN1CCN(C(=O)CN2CCCC2=O)CC1` [N-[(2-oxo-1-pyrrolidinyl)acetyl]-N'-allylpiperazine], the effect result in the data set with anesthetized dogs (dose 2,5 mg/kg) is listed as “Active”. The hypoxia hypobara result in the data set on animals [1] (dose 500 mg/kg) is listed as “Active”. The gasping result in the data set with mouse (dose 500 mg/kg) is “Active”. In addition, the “anoxia by CNK” value with animals [2] (dose 500 mg/kg) is on record as “Active”. In “Acute toxicity LD50”, this compound showed an LD50 of 4000 mg/kg.
Take `O=C(CN1CCCC1=O)N1CCN(CC=Cc2ccccc2)CC1` [N-[(2-oxo-1-pyrrolidinyl)-acetyl]-N'-cinnamylpiperazine]: the effect result in the data set with anesthetized dogs (dose 2,5 mg/kg) was “Active”. In addition, the hypoxia hypobara result with animals [1] (dose 300 mg/kg) is recorded as “Active”. Also, the gasping result in the data set on mouse (dose 300 mg/kg) is “Active”. The “anoxia by CNK” value in the data set with animals [2] (dose 300 mg/kg) is listed as “Active”. This compound had an LD50 in “Acute toxicity LD50” of 1400 mg/kg.
Regarding `COc1ccc(CN2CCN(C(=O)CN3CCCC3=O)CC2)cc1` [N-[(2-oxo-1-pyrrolidinyl)acetyl]-N'-(p-methoxybenzyl)piperazine], the effect result in the data set on anesthetized dogs (dose 1 mg/kg) was “Active”. Further, the hypoxia hypobara result in the data set with animals [1] (dose 250 mg/kg) was “Active”. In the data set on mouse (dose 250 mg/kg), the gasping result was “Active”. Besides, in the data set on animals [2] (dose 250 mg/kg), the “anoxia by CNK” value is recorded as “No effect”. This compound had an LD50 in the data set “Acute toxicity LD50” of 1110 mg/kg.
`NC(=O)CN1CCCC1=O` [(2-oxo-1-pyrrolidinyl)acetamide, reference compound]: the effect entry in the data set with anesthetized dogs (no dose given) is listed as “No effect”. The hypoxia hypobara entry with animals [1] (dose 1000 mg/kg) is “No effect”. The gasping result with mouse (dose 1000 mg/kg) is given as “No effect”. Also, the “anoxia by CNK” value with animals [2] (dose 1000 mg/kg) is “No effect”.
